Measured values taken from ChEMBL document CHEMBL5247586, “Discovery of fusidic acid derivatives as novel STING inhibitors for treatment of sepsis” (Eur J Med Chem, 2022).
Activity calls are given as the source filed them. No cut-off for these calls is given here.

Key:
[1] = molecular target: T1, Stimulator of interferon genes protein (Mus musculus) (UniProt Q3TBT3); assay: In vivo inhibition of STING in BALB/c mouse model of LPS induced sepsis assessed as inhibition of upregulation of phosphorylated TBK1 […] expression at 1.25 to 5 mg/kg, IG administered once a day for 3 days followed by LPS stimulation for 12 hrs starting from 2 hrs post last dose by Western blot analysis; assay type: functional, organism-based; settings: dose 1.25-5 mg/kg, time 86.0 hrs
T1 sequence (whole entry): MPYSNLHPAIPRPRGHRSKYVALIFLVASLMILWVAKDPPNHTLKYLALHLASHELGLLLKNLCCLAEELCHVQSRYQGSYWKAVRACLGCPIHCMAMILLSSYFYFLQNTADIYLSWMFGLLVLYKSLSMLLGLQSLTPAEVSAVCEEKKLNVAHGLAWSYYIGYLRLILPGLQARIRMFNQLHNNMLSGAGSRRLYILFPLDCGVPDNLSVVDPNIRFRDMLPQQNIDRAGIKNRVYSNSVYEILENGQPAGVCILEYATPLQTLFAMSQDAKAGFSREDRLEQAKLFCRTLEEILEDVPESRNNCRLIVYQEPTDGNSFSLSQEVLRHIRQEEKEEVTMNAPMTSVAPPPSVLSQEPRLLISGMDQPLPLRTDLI

[2] = tested on: Mus musculus; assay: Protective activity against LPS induced sepsis in BALB/c mouse model of acute liver injury assessed as reduction in AST level in serum at 1.25 to 5 mg/kg, IG administered once a day for 3 days followed by LPS stimulation for 12 hrs starting from 2 hrs post last dose by ELISA; assay type: functional, organism-based; settings: dose 1.25-5 mg/kg, time 86.0 hrs

inhibition [1]: Active
Compound: C=CCONC(=O)CCSSCCC(=O)O[C@@H]1CC[C@@]2(C)[C@@H](CC[C@@]3(C)[C@H]2[C@H](O)C[C@H]2/C(=C(\CCC=C(C)C)C(=O)OCc4ccccc4)[C@@H](OC(C)=O)C[C@@]23C)[C@@H]1C
Activity [2]: Active
